Reference: patent US5375693A (Sepracor, Inc., priority 1994, dated 1994)

Tests used:
histamine H1 -receptor = histamine H1 -receptor (Bos taurus, UniProt P30546); test: biochemical; conditions: pH 7.5, read-out: Percent Inhibition
Description: 32:1653-1663 (1979). Briefly, membranes from bovine cerebellum were incubated with [^3 H]pyrilamine and varying concentrations of test compound. The reactions were carried out in 50 mM sodium phosphate buffer (pH 7.5) at 25° C. for 30 minutes. The reaction was terminated by rapid vacuum filtration onto glass fiber filters. Radioactivity trapped on the filters was determined and compared to control values to acertain the interaction of the test compound with the H1 -receptor.

[1] = cited from earlier work
[2] = system: airway resistance caused by LTD4 (leukotriene D4); conditions: guinea pigs; cited from earlier work
[3] = in vivo; cited from earlier work
allergic rhinitis = conditions: compared with chlorpheniramine; cited from earlier work
[4] = system: histamine induced lethality; conditions: guinea pig; cited from earlier work

histamine H1 -receptor, sequence (P30546 whole entry): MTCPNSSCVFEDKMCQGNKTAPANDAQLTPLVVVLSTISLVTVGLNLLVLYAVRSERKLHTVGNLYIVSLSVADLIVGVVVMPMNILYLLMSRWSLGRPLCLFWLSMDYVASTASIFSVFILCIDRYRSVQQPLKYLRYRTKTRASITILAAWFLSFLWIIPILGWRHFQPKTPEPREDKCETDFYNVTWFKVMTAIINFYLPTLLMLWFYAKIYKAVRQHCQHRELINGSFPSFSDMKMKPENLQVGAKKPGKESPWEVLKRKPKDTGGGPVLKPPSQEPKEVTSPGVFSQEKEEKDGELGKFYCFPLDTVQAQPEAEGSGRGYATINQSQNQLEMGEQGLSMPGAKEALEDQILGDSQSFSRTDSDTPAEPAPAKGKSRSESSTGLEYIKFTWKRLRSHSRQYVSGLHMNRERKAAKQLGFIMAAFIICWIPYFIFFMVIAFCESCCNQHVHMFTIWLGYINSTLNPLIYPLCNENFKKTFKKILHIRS

Row | Compound | inhibition at 0.001 µM (histamine H1 -receptor) [%] | inhibition at 0.1 µM (histamine H1 -receptor) [%] | inhibition at 10 µM (histamine H1 -receptor) [%] | adverse effects: cardiac arrhythmias ([1]; administration to a human) | occurrence of cardiac arrhythmias ([1]; coadministration with other drugs such as ketoconazole and erythromycin or upon overdose) | sedation, gastrointestinal distress, dry mouth, and constipation or diarrhea ([1]; in vivo) | increase in airway resistance caused by LTD4 [2] | absorption [3] | metabolism [3] | clinical efficacy in allergic rhinitis (allergic rhinitis) | protection against histamine induced lethality [4]
1 | CC(C)(C(=O)O)c1ccc([C@@H](O)CCCN2CCC(C(O)(c3ccccc3)c3ccccc3)CC2)cc1 [S-(-)-terfenadine carboxylate] | 8.1 | 54.1 | 88.7 |  |  |  |  |  |  |  | 
2 | CC(C)(C)c1ccc(C(O)CCCN2CCC(C(O)(c3ccccc3)c3ccccc3)CC2)cc1 (racemic) [Terfenadine] |  |  |  | cardiac arrhythmias, including ventricular tachyarrhythmias, torsades de pointes, and ventricular fibrillation | an increase in the occurrence of these cardiac arrhythmias | relatively less sedation, gastrointestinal distress, dry mouth, and constipation or diarrhea | suppressed | well absorbed | extensively metabolized | slightly less effective than chlorpheniramine | protects against histamine induced lethality in the guinea pig
3 | CC(C)(C(=O)O)c1ccc([C@H](O)CCCN2CCC(C(O)(c3ccccc3)c3ccccc3)CC2)cc1 [R-(+)-terfenadine carboxylate] | 12.4 | 45.2 | 87.3 |  |  |  |  |  |  |  | 
